Legend:
[1] = system: N-87 cells (HER2 overexpressing cell line); test: N-87 cell proliferation inhibitory activity (CellTiter-Glo, 72 hours); type: cell-based
Protocol: To evaluate the cell proliferation inhibitory activity of the compound according to the present invention on HER2 and EGFR kinases, the following method was performed using HER2 overexpressing cell lines (SK-BR-3, BT-474, and N-87) and EGFR expressing cell line (HaCaT).
McCOY'S 5A supplemented with 10% FBS was used for SK-BR-3 cells, RPMI-1640 medium supplemented with 20% FBS was used for BT-474 cancer cells, and RPMI-1640 medium supplemented with 10% FBS was used for N-87 cancer cells. DMEM supplemented with 10% FBS was used for HaCaT cells.
For SK-BR-3 cells, 5000 cells were aliquoted into each well of a white clear bottom 96 well plate (Corning) 48 hours before treatment with the compounds of Examples. For BT-474 cells, 5000 cells were aliquoted into each well of a white clear bottom 96 well plate (Corning) 48 hours before treatment with the compounds of Examples. For N-87 cells, 5000 cells were aliquoted into each well of a white clear bottom 96 well plate (Corning) 24 hours before treatment with the compounds of Examples. For HaCaT cells, 3000 cells were aliquoted into each well of a white clear bottom 96 well plate (Corning) 24 hours before treatment with the compounds of Examples. For SK-BR-3 cells and BT-474 cells, the compounds of Examples were diluted in dimethyl sulfoxide (three-fold dilution, a total of 11 concentrations) and injected each in an amount of 1 μl to a final concentration of 0.2 nM to 10 μM. For N-87 cells, the compounds of Examples were diluted in dimethyl sulfoxide (five-fold dilution, a total of 11 concentrations) and injected each in an amount of 0.5 μl to a final concentration of […] to 5 μM. For HaCaT cells, the compounds of Examples were diluted in dimethyl sulfoxide (three-fold dilution, a total of 11 concentrations) and injected each in an amount of 0.5 μl to a final concentration of 0.8 nM to 45 μM. For the measurement of living cells, the cells were stored at room temperature for 10 minutes using CellTiter-Glo cell viability reagent (Promega) after a certain period of time (SK-BR-3: 120 hours, BT-474: 120 hours, N-87: 72 hours, and HaCaT: 72 hours) post treatment with the compounds of Examples, and the luminescence intensity thereof was measured using a reader (SynergyNeo, Biotek). Each test was repeated three times.
The result values were calculated as a cell growth rate (%) compared to those of the control group. A graph was created using the GraphPad Prism version 5.0 program, and GI50 values were calculated.

[2] = system: HaCaT cells (EGFR expressing cell line); test: HaCaT cell proliferation inhibitory activity (CellTiter-Glo, 72 hours); type: cell-based; settings: Homo sapiens
Method in brief: (§1)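 GI50 derived from % growth versus control from CellTiter-Glo luminescence, each test run three times. SK-BR-3 and BT-474 are seeded 48 h ahead at 5000/well and dosed at 0.2 nM–10 μM. N-87 (5000/well) gets […]–5 μM and HaCaT (3000/well) gets 0.8 nM–45 μM, both seeded 24 h ahead.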

[3] = system: BT-474 cells (HER2 overexpressing cell line); test: BT-474 cell proliferation inhibitory activity (CellTiter-Glo, 120 hours); type: cell-based; settings: Homo sapiens
Method in brief: as §1

[4] = system: SK-BR-3 cells (HER2 overexpressing cell line); test: SK-BR-3 cell proliferation inhibitory activity (CellTiter-Glo, 120 hours); type: cell-based; settings: Homo sapiens
Method in brief: as §1

HER2 = target: T1, HER2 (Homo sapiens, UniProt P04626); test: Biochemical kinase assay for HER2 (Reaction Biology Corp), ATP 10 μM, 10-dose IC50
T1 construct: purchased Reaction Biology Corp
T1 sequence (P04626 23-1255): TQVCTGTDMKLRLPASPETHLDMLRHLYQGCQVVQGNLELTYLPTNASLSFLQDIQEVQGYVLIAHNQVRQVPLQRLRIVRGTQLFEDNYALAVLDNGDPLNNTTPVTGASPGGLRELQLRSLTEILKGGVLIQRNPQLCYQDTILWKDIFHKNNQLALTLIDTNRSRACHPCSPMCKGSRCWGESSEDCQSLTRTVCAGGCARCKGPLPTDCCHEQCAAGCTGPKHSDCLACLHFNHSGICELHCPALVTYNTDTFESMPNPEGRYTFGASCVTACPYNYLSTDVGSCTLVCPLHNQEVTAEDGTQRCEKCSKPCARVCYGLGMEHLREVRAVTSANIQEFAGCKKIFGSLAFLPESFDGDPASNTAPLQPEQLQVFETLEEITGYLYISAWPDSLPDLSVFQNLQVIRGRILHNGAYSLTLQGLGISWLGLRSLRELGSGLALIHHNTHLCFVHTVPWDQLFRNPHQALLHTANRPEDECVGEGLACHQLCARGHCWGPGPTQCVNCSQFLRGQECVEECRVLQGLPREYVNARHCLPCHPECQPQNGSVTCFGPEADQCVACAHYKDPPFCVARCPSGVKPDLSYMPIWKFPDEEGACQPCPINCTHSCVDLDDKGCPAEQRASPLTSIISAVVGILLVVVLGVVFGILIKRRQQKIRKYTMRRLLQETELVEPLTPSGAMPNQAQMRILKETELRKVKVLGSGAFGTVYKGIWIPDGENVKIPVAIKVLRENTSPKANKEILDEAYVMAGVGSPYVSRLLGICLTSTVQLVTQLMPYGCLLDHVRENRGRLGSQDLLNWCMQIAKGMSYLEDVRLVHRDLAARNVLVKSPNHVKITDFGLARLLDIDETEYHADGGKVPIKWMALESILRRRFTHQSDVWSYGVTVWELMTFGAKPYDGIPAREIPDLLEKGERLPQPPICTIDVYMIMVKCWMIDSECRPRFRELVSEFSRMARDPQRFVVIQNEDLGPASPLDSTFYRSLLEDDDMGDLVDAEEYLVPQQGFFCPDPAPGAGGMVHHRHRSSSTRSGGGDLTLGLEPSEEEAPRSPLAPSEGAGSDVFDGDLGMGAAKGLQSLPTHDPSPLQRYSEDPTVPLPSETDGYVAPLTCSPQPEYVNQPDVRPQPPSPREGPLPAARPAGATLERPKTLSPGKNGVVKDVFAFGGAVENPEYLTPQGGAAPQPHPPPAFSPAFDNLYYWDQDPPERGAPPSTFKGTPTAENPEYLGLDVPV
Protocol: Biochemical kinase assays for HER2 and EGFR were performed by Reaction Biology Corp (San Diego, USA).

C=CC(=O)N1CCC(Nc2cc3c(Nc4cc(-c5ccco5)ccc4OC)ncnc3cc2OC2CCOC2)CC1 (stereo not shown) [Example 270, 1-(4-((4-((5-(furan-2-yl)-2-methoxyphenyl)amino)-7-((tetrahydrofuran-3-yl)oxy)quinazolin-6-yl)amino)piperidin-1-yl)prop-2-en-1-one]
GI50 [1]: ≤ 150 nM | GI50 [2]: ≤ 150 nM | GI50 [3]: ≤ 150 nM | GI50 [4]: ≤ 150 nM

C=CC(=O)N1CC(Oc2cc3c(Nc4cc(-c5cccc(C#N)c5F)ccc4OC)ncnc3cc2OC)C1 [Example 21, 3'-((6-((1-acryloylazetidin-3-yl)oxy)-7-methoxy-quinazolin-4-yl)amino)-2-fluoro-4′-methoxy-[1,1′-biphenyl]-3-carbonitrile]
GI50 [1]: ≤ 150 nM | GI50 [2]: ≤ 150 nM | GI50 [3]: ≤ 150 nM | GI50 [4]: ≤ 150 nM

C=CC(=O)N1CCC(Oc2cc3c(Nc4cc(-c5ccc(F)cc5F)ccc4OC4CC4)ncnc3cc2OC)CC1 [Example 260, 1-(4-((4-((4-cyclopropoxy-2′,4′-difluoro-[1,1′-biphenyl]-3-yl)amino)-7-methoxyquinazolin-6-yl)oxy)piperidin-1-yl)prop-2-en-1-one]
GI50 [1]: ≤ 150 nM | GI50 [2]: ≤ 150 nM | GI50 [3]: ≤ 150 nM | GI50 [4]: ≤ 150 nM

C=CC(=O)N1CCC(Oc2cc3c(Nc4cc(-c5ccc(F)c(C(F)(F)F)c5)ccc4OC)ncnc3cc2OC)CC1 [Example 142, 1-(4-((4-((4′-fluoro-4-methoxy-3′-(trifluoromethyl)-[1,1′-biphenyl]-3-yl)amino)-7-methoxy-quinazolin-6-yl)oxy)piperidin-1-yl)prop-2-en-1-one]
GI50 [1]: ≤ 150 nM | GI50 [2]: 150 to 1000 nM | GI50 [3]: ≤ 150 nM | GI50 [4]: ≤ 150 nM

C=CC(=O)N1CC(Oc2cc3c(Nc4cc(-c5ccccc5F)ccc4OC)ncnc3cc2OC)C1 [Example 24, 1-(3-((4-((2′-fluoro-4-methoxy-[1,1′-biphenyl]-3-yl)amino)-7-methoxy-quinazolin-6-yl)oxy)azetidin-1-yl)prop-2-en-1-one]
GI50 [1]: ≤ 150 nM | GI50 [2]: ≤ 150 nM | GI50 [3]: ≤ 150 nM | GI50 [4]: ≤ 150 nM

C=CC(=O)N1CCC(Nc2cc3c(Nc4cc(-c5ccc(F)cc5F)ccc4OC)ncnc3cc2OC2CCOC2)CC1 (stereo not shown) [Example 286, 1-(4-((4-((2′,4′-difluoro-4-methoxy-[1,1′-biphenyl]-3-yl)amino)-7-((tetrahydrofuran-3-yl)oxy)quinazolin-6-yl)amino)piperidin-1-yl)prop-2-en-1-one]
GI50 [1]: ≤ 150 nM | GI50 [2]: ≤ 150 nM | GI50 [3]: ≤ 150 nM | GI50 [4]: ≤ 150 nM

C=CC(=O)N1CCC(Oc2cc3c(Nc4cc(-c5cc(N)c(F)cc5C)ccc4OC)ncnc3cc2OC)CC1 [Example 161, 1-(4-((4-((5′-amino-4′-fluoro-4-methoxy-2′-methyl-[1,1′-biphenyl]-3-yl)amino)-7-methoxy-quinazolin-6-yl)oxy)piperidin-1-yl)prop-2-en-1-one]
GI50 [1]: ≤ 150 nM | GI50 [2]: ≤ 150 nM | GI50 [3]: ≤ 150 nM | GI50 [4]: ≤ 150 nM

C=CC(=O)N1CCC(Oc2cc3c(Nc4cc(-c5cc(C)co5)ccc4OC)ncnc3cc2OC)CC1 [Example 90, 1-(4-((7-methoxy-4-((2-methoxy-5-(4-methylfuran-2-yl)phenyl)amino)quinazolin-6-yl)oxy)piperidin-1-yl)prop-2-en-1-one]
IC50 (HER2): ≤ 50 nM

C=CC(=O)N1CCC(Oc2cc3c(Nc4cc(-c5ccco5)c(F)cc4OC)ncnc3cc2OC)C(F)C1 (stereo not shown) [Example 140, 1-(3-fluoro-4-((4-((4-fluoro-5-(furan-2-yl)-2-methoxyphenyl)amino)-7-methoxy-quinazolin-6-yl)oxy)piperidin-1-yl)prop-2-en-1-one]
GI50 [1]: ≤ 150 nM | GI50 [2]: ≤ 150 nM | GI50 [3]: ≤ 150 nM | GI50 [4]: ≤ 150 nM

C=CC(=O)N1CC(Oc2cc3c(Nc4cc(-c5ccc(F)nc5)ccc4OC)ncnc3cc2OC)C1 [Example 22, 1-(3-( (4-((5-(6-fluoropyridin-3-yl)-2-methoxyphenyl)amino)-7-methoxy-quinazolin-6-yl)oxy)azetidin-1-yl)prop-2-en-1-one]
GI50 [1]: ≤ 150 nM | GI50 [2]: ≤ 150 nM | GI50 [3]: ≤ 150 nM | GI50 [4]: ≤ 150 nM

C=CC(=O)N1CC[C@@H](Oc2cc3c(Nc4cc(-c5ccc(F)cc5F)ccc4OC)ncnc3cc2OC)[C@H](F)C1 (relative stereo) [Example 171, 1-(trans-4-((4-((2′,4′-difluoro-4-methoxy-[1,1′-biphenyl]-3-yl)amino)-7-methoxy-quinazolin-6-yl)oxy)-3-fluoropiperidin-1-yl)prop-2-en-1-one]
GI50 [1]: ≤ 150 nM | GI50 [2]: ≤ 150 nM | GI50 [3]: ≤ 150 nM | GI50 [4]: ≤ 150 nM

C=CC(=O)N1CCC(Oc2cc3c(Nc4cc(-c5ccc(F)cc5)ccc4OC)ncnc3cc2OC)CC1 [Example 67, 1-(4-((4-((4′-fluoro-4-methoxy-[1,1′-biphenyl]-3-yl)amino)-7-methoxy-quinazolin-6-yl)oxy)piperidin-1-yl)prop-2-en-1-one]
GI50 [1]: ≤ 150 nM | GI50 [2]: 150 to 1000 nM | GI50 [3]: ≤ 150 nM | GI50 [4]: ≤ 150 nM

C=CC(=O)N1CCC(Nc2cc3c(Nc4cc(-c5ccco5)ccc4OC)ncnc3cc2OCCCN2CCOCC2)CC1 [Example 278, 1-(4-((4-((5-(furan-2-yl)-2-methoxyphenyl)amino)-7-(3-morpholinopropoxy)quinazolin-6-yl)amino)piperidin-1-yl)prop-2-en-1-one]
GI50 [1]: ≤ 150 nM | GI50 [2]: ≤ 150 nM | GI50 [3]: ≤ 150 nM | GI50 [4]: ≤ 150 nM

C=CC(=O)N1CCC(Oc2cc3c(Nc4cc(-c5ccc(F)cc5F)c(F)cc4OC)ncnc3cc2OC)CC1 [Example 157, 1-(4-((7-methoxy-4-((2′,4′,6-trifluoro-4-methoxy-[1,1′-biphenyl]-3-yl)amino)quinazolin-6-yl)oxy)piperidin-1-yl)prop-2-en-1-one]
GI50 [1]: ≤ 150 nM | GI50 [2]: ≤ 150 nM | GI50 [3]: ≤ 150 nM | IC50 (HER2): ≤ 50 nM

C=CC(=O)N1CCC(Oc2cc3c(Nc4cc(-c5cccc(N)c5F)ccc4OC)ncnc3cc2OC)CC1 [Example 163, 1-(4-((4-((3′-amino-2′-fluoro-4-methoxy-[1,1′-biphenyl]-3-yl)amino)-7-methoxy-quinazolin-6-yl)oxy)piperidin-1-yl)prop-2-en-1-one]
GI50 [1]: ≤ 150 nM | GI50 [2]: 150 to 1000 nM | GI50 [3]: 150 to 1000 nM | GI50 [4]: ≤ 150 nM

C=CC(=O)N1CC(Oc2cc3c(Nc4cc(-c5cccc(C(F)(F)F)c5F)ccc4OC)ncnc3cc2OC)C1 [Example 17, 1-(3-((4-((2′-fluoro-4-methoxy-3′-(trifluoromethyl)-[1,1′-biphenyl]-3-yl)amino)-7-methoxy-quinazolin-6-yl)oxy)azetidin-1-yl)prop-2-en-1-one]
GI50 [1]: ≤ 150 nM | GI50 [2]: 150 to 1000 nM | GI50 [3]: ≤ 150 nM | GI50 [4]: ≤ 150 nM
